Experimental data from patent US11083724B2, “Rimegepant for CGRP related disorders” (Biohaven Pharmaceutical Holding Company Ltd., priority 2018, dated 2021).

How the values were obtained:
[1] = system: subjects with Acute Migraines; assay: Study 301 (BHV3000-301, NCT03235479): Phase 3 double-blind placebo-controlled trial, rimegepant 75 mg tablet, acute treatment of migraine; format: in vivo, human; conditions: for Freedom from MBS at 2 hours / Pain Freedom (pain-free) at 2 hours: N = 543
Method: Clinical Trial—BHV3000-301: Phase 3: Double-Blind, Randomized, Placebo-Controlled, Safety and Efficacy Trial of BHV-3000 (Rimegepant) for the Acute Treatment of Migraine (ClinicalTrials.gov Identifier: NCT03235479). A phase 3 clinical study was conducted with 1490 participants, as follows. The purpose of this study was to compare the efficacy of BHV-3000 (rimegepant) versus placebo in subjects with Acute Migraines Study Design • Study Type: Interventional (Clinical Trial) • Actual Enrollment: 1490 participants • Allocation: Randomized • Intervention Model: Parallel Assignment • Intervention Model Description: Double-blind to Sponsor, Investigator and Subject Randomized Controlled Trial • Masking: Triple (Participant, Care Provider, Investigator) • Masking Description: Double-blind to Sponsor, Investigator and Subject • Primary Purpose: Treatment • Official Title: BHV3000-301: Phase 3: Double-Blind, Randomized, Placebo-Controlled, Safety and Efficacy Trial of BHV-3000 (Rimegepant) for the Acute Treatment of Migraine Arms and Interventions Outcome Measures Primary Outcome Measures: • 1. Pain freedom of rimegepant (75 mg tablet) compared with placebo in the acute treatment of migraine will be measured using the number of evaluable subjects that report no pain at 2 hours post-dose. [Time Frame: Two hours post dose] • Pain will be measured on a 4 point Likert scale (0=none, 1=mild, 2=moderate, 3=severe) • 2. Freedom from the most bothersome symptom (MBS) of rimegepant (75 mg tablet) compared with placebo will be measured using the number of evaluable subjects that report the absence of their MBS at 2 hours post-dose. [Time Frame: Two hours post dose] • The MBS (nausea, phonophobia or photophobia) will measured using a binary scale (0=absent, 1=present). Secondary Outcome Measures: • 1. […] [Time Frame: 2 hours-24 hours post-dose] • Sustained Pain Freedom as measured by a 4 point numeric rating scale (None, Mild, Moderate, Severe) • 2. The difference between rimegepant (75 mg tablet) compared to placebo by tabulating the absence of photophobia at 2 hours post-dose in the subset of subjects that reported the presence of photophobia at headache baseline. [Time Frame: 2 hours post-dose] • Photophobia • 3. To evaluate rimegepant (75 mg tablet) compared to placebo by tabulating the number of subjects that report the absence of phonophobia at 2 hours post-dose in the subset of subjects that reported the presence of phonophobia at headache baseline. [Time Frame: 2 hours post-dose] • Phonophobia • 4. To measure the difference between rimegepant (75 mg tablet) compared to placebo on Pain Relief, at 2 hours post-dose, for those that report a pain level of moderate or severe at baseline and then report a pain level of none or mild. [Time Frame: 2 hours post-dose] • Pain Relief as measured by a 4 point numeric rating scale (None, Mild, Moderate, Severe) • 5. Freedom from Nausea by tabulating the number of subjects that report the absence of nausea at 2 hours post-dose in the subset of subjects that reported the presence of nausea at headache baseline. [Time Frame: 2 hours post-dose] • Freedom from Nausea • 6. The difference between rimegepant (75 mg tablet) compared to placebo on the probability of requiring rescue medication using the number of subjects that take rescue medication within […] administration of study medication (BHV3000 or placebo). [Time Frame: up to 24 hours post-dose] • Requiring Rescue Medication • 7. […] [Time Frame: 2 hours-24 hours post-dose] • Sustained Pain Freedom • 8. […] [Time Frame: 2 hours-24 hours post-dose] • Sustained Pain Relief as measured by a 4 point numeric rating scale (None, Mild, Moderate, Severe) • 9. […] [Time Frame: 2 hours-48 hours post-dose] • Sustained Pain Relief as measured by a 4 point numeric rating scale (None, Mild, Moderate, Severe) • 10. […]

[2] = system: subjects with Acute Migraines; assay: Pooled adverse event and liver function test data, Studies 301, 302 and 303; format: in vivo, human; conditions: for bilirubin elevations > 2 × ULN: across Studies 301, 302 and 303
[3] = Study 301, single 75 mg tablet, listed as rimegepant
[4] = pooled Studies 301, 302, 303, n = 1,771
[5] = pooled Studies 301, 302, 303, n = 1,771, AST elevation, not drug-related
[6] = pooled Studies 301, 302, 303, within 48 hours post-dose, n = 1,771

N[C@@H]1c2cccnc2[C@H](OC(=O)N2CCC(n3c(=O)[nH]c4ncccc43)CC2)CC[C@H]1c1cccc(F)c1F [Rimegepant, [(5S,6S,9R)-5-amino-6-(2,3-difluorophenyl)-6,7,8,9-tetrahydro-5H-cyclohepta[b]pyridin-9-yl] 4-(2-oxo-3H-imidazo[4,5-b]pyridin-1-yl)piperidine-1-carboxylate]
SAEs related to the study drug ([1]; Study 301): No SAE | bilirubin elevations >2 times ULN ([1]; Study 301): No bilirubin elevations | transaminase level >5 times ULN ([1]; Study 301): no subject | AE dizziness ([1]; Study 301, 4/546): 0.7% | AE nausea ([1]; Study 301, 5/546): 0.9% | Serum ALT or AST levels greater than ULN ([1]; Study 301, 11/546): 2.0% | functional disability: patients achieving normal function at 2 hours versus placebo ([1]; Study 301, P<0.0001): greater proportion | Serious AEs (SAEs) ([1]; Study 301, n=2): 0.4% | transaminase level >3 times ULN ([1]; Study 301, one subject): 0.2% | Free from MBS at 2 hours, subjects [n/N] ([1]; Study 301, single 75 mg tablet): [199/543] | Nausea-free at 2 hours ([1]; Study 301, single 75 mg tablet): 46.9% | Nausea-free at 2 hours, subjects [n/N] ([1]; Study 301, single 75 mg tablet): [149/318] | Pain relief at 2 hours ([1]; Study 301, single 75 mg tablet): 56.0% | Pain relief at 2 hours, subjects [n/N] ([1]; Study 301, single 75 mg tablet): [304/543] | Pain-free at 2 hours, subjects [n/N] ([1]; Study 301, single 75 mg tablet): [104/543] | Phonophobia-free at 2 hours ([1]; Study 301, single 75 mg tablet): 38.6% | Phonophobia-free at 2 hours, subjects [n/N] ([1]; Study 301, single 75 mg tablet): [133/345] | Photophobia-free at 2 hours ([1]; Study 301, single 75 mg tablet): 34.9% | Photophobia-free at 2 hours, subjects [n/N] ([1]; Study 301, single 75 mg tablet): [164/470] | Sustained pain relief, 2-24 hours ([1]; Study 301, single 75 mg tablet): 38.9% | Sustained pain relief, 2-24 hours, subjects [n/N] ([1]; Study 301, single 75 mg tablet): [211/543] | Freedom from MBS at 2 hours ([1]; Study 301, single 75 mg tablet): 36.6% | Pain Freedom (pain-free) at 2 hours ([1]; Study 301, single 75 mg tablet): 19.2% | Freedom from MBS at 2 hours [1, 3]: 36.6% | Pain Freedom (pain-free) at 2 hours [1, 3]: 19.2% | Pain relief at 2 hours [1, 3]: 56.0% | sustained pain relief from 2 through 48 hours postdose versus placebo ([1]; Study 301, single dose, no rescue medication, P=0.0003): superiority versus placebo | sustained pain freedom from 2 through 48 hours postdose versus placebo ([1]; Study 301, single dose, no rescue medication, P=0.013): superiority versus placebo | bilirubin elevations > 2 × ULN [2]: *AST/ALT Categories are not mutually exclusive; No bilirubin elevations > 2 × ULN across Studies 301, 302 and 303 | bilirubin elevations > 2 × ULN ([2]; listed as rimegepant): no patients | drug-related Serious Adverse Events (SAEs) ([2]; pooled Studies 301, 302, 303): **No drug-related Serious Adverse Events (SAEs). 2 of the subjects with SAE in rimegepant group and 1 in placebo group had not been dosed before onset of SAE. | ALT or AST >3 × ULN, number of subjects [2, 4]: 2 | ALT or AST >3 × ULN, percent of subjects [2, 4]: (0.1%) | ALT or AST >20 × ULN, number of subjects [2, 4]: 0 | ALT or AST >ULN, number of subjects [2, 4]: 48 | ALT or AST >ULN, percent of subjects [2, 4]: (2.7%) | SAEs, number of patients [2, 4]: 3 | SAEs, percent of patients [2, 4]: 0.2% | ALT or AST >5 × ULN, number of subjects [2, 5]: 1 | ALT or AST >5 × ULN, percent of subjects [2, 5]: (0.06%)^2 | AE Nausea, number of patients [2, 6]: 26 | AE Nausea, percent of patients [2, 6]: 1.5% | AE UTI, number of patients [2, 6]: 21 | AE UTI, percent of patients [2, 6]: 1.2% | ≥1 On-Study AE, number of patients [2, 6]: 252 | ≥1 On-Study AE, percent of patients [2, 6]: 14.2%
